Laboratory results as given in patent publication US8648068B2, “Heterocycloalkyl-containing thienopyrimidines for pharmaceutical compositions” (Boehringer Ingelheim International GmbH, priority 2010, dated 2014).

Molecular target: T1, human Mnk2a (Homo sapiens, UniProt Q9HBH9)
T1 construct: made in house; host or cells: E. coli BL21 (vector pGEX-4T1)
Assay: Mnk2a in vitro kinase assay (indirect fluorescence polarization)
Format: biochemical
Conditions: GST-Mnk2a pre-activated with ERK2, 20 μM ATP, 30 μM substrate peptide; read-out: MNK2 IC50
Procedure: Inhibitory potency of compounds against Mnk1, Mnk2a and other kinases was assessed with assays based on a format known to those skilled in the art as the indirect (competitive) fluorescence polarization. The assay detection system comprises a small fluorophore-labeled phospho-peptide (termed ligand) bound to a phospho-specific antibody. The product generated by the kinase reaction competes with the ligand for antibody binding. Based on the larger molecular volume of the bound ligand, which results in a lower rotation rate in solution, its emitted light has a higher degree of polarization than the one from the free ligand.
As a source of enzyme, human Mnk1 and human Mnk2a were expressed as GST fusion proteins in E. coli, purified to >80% homogeneity by glutathione affinity chromatography and activated in vitro with pre-activated ERK2. In brief, the open reading frames of human Mnk1 and Mnk2a were amplified from cDNA using the forward/reverse primer pairs
(utilized restriction sites underlined), respectively, and cloned into the BamHI and SalI sites of the vector pGEX-4T1 (Amersham, Sweden, cat. no. 27-4580-01). These constructs allow prokaryotic expression of Mnk1 or Mnk2a as fusion protein with a N-terminal glutathione S-transferase (GST) tag, referred to as GST-Mnk1 or GST-Mnk2a. The following expression and purification procedure was identical for GST-Mnk1 and GST-Mnk2a, referring in general to GST-Mnk, when not distinguishing between the two isoforms. Expression of GST-Mnk was in E. coli BL21 (Merck Biosciences, Germany, cat. no. 69449). Cells were grown in LB-Bouillon (Merck, Germany, cat. no. 1.10285) supplemented with 100 μg/ml ampicillin (Sigma, Germany, cat. no. A9518) at 37° C. When the culture had reached a density corresponding to an A600 of 0.8, an equal volume of ice cold LB/ampicillin was added, the culture transferred to 25° C. and induced for 4 h with 1 mM isopropyl thiogalactoside (IPTG, Roth, Germany, cat. no. 2316.4). Cells harvested by centrifugation were resuspended in 10 ml lysis buffer (50 mM tris(hydroxymethyl)aminomethane hydrochloride (Tris/HCl, Sigma, Germany, cat. no. T5941) pH 7.5, 300 mM sodium chloride (NaCl, Sigma, Germany, cat. no. S7653), 5% (w/v) glycerol (Sigma, Germany, cat. no. G5516), 3 mM DTT dithiotreitol (DTT, Sigma, Germany, cat. no. D9779)) per gram wet weight cell pellet. Lysates were prepared by disruption of cells with a sonifier and subsequent clearing by centrifugation at 38000 g for 45 min at 4° C.
The lysate was applied to a GSTPrep FF 16/10 column (Amersham, Sweden, cat. no. 17-5234-01) equilibrated with lysis buffer. Removal of unbound material was with 3 column volumes (CV) lysis buffer. Elution was with 2 CV of elution buffer (50 mM Tris/HCl pH 7.5, 300 mM NaCl, 5% (w/v) glycerol, 20 mM glutathione (Sigma, Germany, cat. no. G4251)). Peak fractions were pooled and the protein transferred into storage buffer (50 mM Tris/HCl pH 7.5, 200 mM NaCl, 0.1 mM ethylene glycol-bis(2-aminoethylether)-N,N,N′,N′-tetraacetic acid (EGTA, Aldrich, Germany, cat. no. 23, 453-2), 1 mM DTT, 10% (w/v) glycerol, 0.5 M sucrose (Sigma, Germany, cat. no. SO389) by gel filtration on a PD10 desalting column (Amersham, Sweden, cat. no. 17-0851-01). Aliquots were shock frozen in liquid nitrogen and stored at −80° C.
Activation of Mnk1 and Mnk2a was at a concentration of 2.5 μM of either purified GST-Mnk1 or GST-Mnk2a by incubation with 150 nM pre-activated NHis-ERK2 (see ERK2 assay for preparation) and 50 μM adenosine triphosphate (ATP, Sigma, cat. no. A2699) in a buffer comprising 20 mM N-(2-hydroxyethyl)piperazine-N′-(2-ethanesulfonic acid) (HEPES, Fluka, Germany, cat. no 54459)/potassium hydroxide (KOH, Roth, Germany, cat. no 6751.1) pH 7.4, 10 mM magnesium chloride (MgCl2, Sigma, Germany, cat. no. M2670), 0.25 mM DTT, 0.05% (w/v) polyoxyethylene 20 stearylether (Brij 78, Sigma, Germany, cat. no. P4019) (HMDB buffer) for 45 min at 30° C. […]

T1 sequence (Q9HBH9 whole entry): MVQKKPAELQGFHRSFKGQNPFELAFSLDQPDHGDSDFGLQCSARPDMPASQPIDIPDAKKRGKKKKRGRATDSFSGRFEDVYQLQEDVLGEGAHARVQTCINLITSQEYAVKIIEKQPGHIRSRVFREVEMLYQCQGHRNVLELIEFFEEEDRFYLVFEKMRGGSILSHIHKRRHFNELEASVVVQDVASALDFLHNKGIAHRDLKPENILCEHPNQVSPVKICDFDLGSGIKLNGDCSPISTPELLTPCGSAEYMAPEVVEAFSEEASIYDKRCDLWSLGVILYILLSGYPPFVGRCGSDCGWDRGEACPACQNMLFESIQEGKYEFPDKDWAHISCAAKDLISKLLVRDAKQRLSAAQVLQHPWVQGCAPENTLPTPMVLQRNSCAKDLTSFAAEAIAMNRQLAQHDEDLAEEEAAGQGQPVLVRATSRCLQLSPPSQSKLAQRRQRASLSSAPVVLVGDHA

IC50	Compound
10 nM	Cc1c(C(N)=O)sc2ncnc(Nc3ccc(Cl)cc3O[C@H]3CCCNC3)c12 [Example 66, 4-[4-Chloro-2-((S)-piperidin-3-yloxy)-phenylamino]-5-methyl-thieno[2,3-d]pyrimidine-6-carboxylic acid amide]
12 nM	Cc1c(C(N)=O)sc2ncnc(Nc3ccc(F)cc3O[C@@H]3CCCN(CCC(F)(F)F)C3)c12 [Example 79]
113 nM	Cc1c(C(=O)NC(CO)CO)sc2ncnc(Nc3ccc(F)cc3OC3CCOCC3)c12 [Example 153]
27 nM	Cc1c(C(=O)NCc2ncco2)sc2ncnc(Nc3ccc(F)cc3OC3CCOCC3)c12 [Example 187]
47 nM	Cc1c(C(=O)N[C@H]2C[C@@H]2N)sc2ncnc(Nc3ccc(F)cc3OC3CCOCC3)c12 [Example 144]
39 nM	CNC(=O)c1sc2ncnc(Nc3ccc(F)cc3O[C@H]3CCCNC3)c2c1C [Example 11, 4-[4-Fluoro-2-((S)-piperidin-3-yloxy)-phenylamino]-5-methyl-thieno[2,3-d]pyrimidine-6-carboxylic acid methylamide]
43 nM	Cc1c(C(N)=O)sc2ncnc(Nc3ccc(F)cc3O[C@@H]3CCCN(C)C3)c12 [Example 76, 4-[4-Fluoro-2-((R)-1-methyl-piperidin-3-yloxy)-phenylamino]-5-methyl-thieno[2,3-d]pyrimidine-6-carboxylic acid amide]
21 nM	Cc1c(C(=O)NC2CC2)sc2ncnc(Nc3ccc(F)cc3O[C@H]3CCOC3)c12 [Example 112]
68 nM	Cc1c(C(=O)NCCc2cccs2)sc2ncnc(Nc3ccc(F)cc3OC3CCCNC3)c12 (stereo not shown) [Example 37]
22 nM	Cc1c(C(=O)NCCCN(C)C)sc2ncnc(Nc3ccc(F)cc3O[C@@H]3CCCOC3)c12 [Example 88, 4-{4-Fluoro-2-[(R)-(tetrahydro-pyran-3-yl)oxy]-phenylamino}-5-methyl-thieno[2,3-d]pyrimidine-6-carboxylic acid (3-dimethylamino-propyl)-amide]
120 nM	Cc1c(C(N)=O)sc2ncnc(Nc3ccc(F)cc3O[C@H]3CCCN(CCC#N)C3)c12 [Example 3]
28 nM	Cc1c(C(=O)NCC2CCCOC2)sc2ncnc(Nc3ccc(F)cc3OC3CCOCC3)c12 (stereo not shown) [Example 197]
300 nM	COCC(=O)N1CCC(Oc2cc(F)ccc2Nc2ncnc3sc(C(N)=O)c(C)c23)C1 (stereo not shown) [Example 94, 4-{4-Fluoro-2-[1-(2-methoxy-acetyl)-pyrrolidin-3-yloxy]-phenylamino}-5-methyl-thieno[2,3-d]pyrimidine-6-carboxylic acid amide]
92 nM	Cc1c(C(=O)NCC2(N)CCCC2)sc2ncnc(Nc3ccc(F)cc3OC3CCOCC3)c12 [Example 140]
61 nM	Cc1c(C(=O)NC(C)C)sc2ncnc(Nc3ccc(F)cc3O[C@H]3CCCNC3)c12 [Example 12]
28 nM	Cc1c(C(=O)NCCCN2CC[C@H](O)C2)sc2ncnc(Nc3ccc(F)cc3OC3CCOCC3)c12 [Example 251]
47 nM	Cc1c(C(=O)NCC2(O)CC2)sc2ncnc(Nc3ccc(F)cc3OC3CCOCC3)c12 [Example 178]
71 nM	Cc1c(C(=O)N[C@H]2C[C@H]2N)sc2ncnc(Nc3ccc(F)cc3OC3CCOCC3)c12 [Example 136]
39 nM	Cc1c(C(=O)N[C@H]2CC[C@H](O)CC2)sc2ncnc(Nc3ccc(F)cc3OC3CCOCC3)c12 [Example 173]
42 nM	Cc1c(C(=O)NCCCn2ccnc2)sc2ncnc(Nc3ccc(F)cc3OC3CCOCC3)c12 [Example 220]
66 nM	Cc1c(C(=O)NCC(C)(C)O)sc2ncnc(Nc3ccc(F)cc3OC3CCOCC3)c12 [Example 190]
99 nM	Cc1c(C(=O)NCC(C)(C)O)sc2ncnc(Nc3ccc(F)cc3OC3CCCNC3)c12 (stereo not shown) [Example 49]
42 nM	Cc1c(C(=O)NC2CCN(C)CC2)sc2ncnc(Nc3cccnc3OC3CCOCC3)c12 [Example 281]
22 nM	Cc1c(C(=O)NCC2CN(C)CCO2)sc2ncnc(Nc3ccc(F)cc3OC3CCOCC3)c12 (stereo not shown) [Example 117]
42 nM	Cc1c(C(=O)NCC(C)O)sc2ncnc(Nc3ccc(F)cc3OC3CCOCC3)c12 (stereo not shown) [Example 158]
